Results on six compounds are retold here after patent US20210255193A1, “LYSINE REACTIVE PROBES AND USES THEREOF” (The Scripps Research Institute, priority 2017, published 2021).

Holding throughout (assay): competitive isoTOP-ABPP
Format in all cases: binding

The target in experiment [1] is T1, LRRC20 Leucine-rich repeat-containing protein 20 (Homo sapiens, UniProt Q8TCA0).
T1 construct: isoTOP-ABPP experiments performed in cell lysates (in vitro); endogenous in cells; host or cells: soluble proteome of human cancer cell lines (MDA-MB-231; Ramos and Jurkat also prepared)
T1 sequence (Q8TCA0 1-184): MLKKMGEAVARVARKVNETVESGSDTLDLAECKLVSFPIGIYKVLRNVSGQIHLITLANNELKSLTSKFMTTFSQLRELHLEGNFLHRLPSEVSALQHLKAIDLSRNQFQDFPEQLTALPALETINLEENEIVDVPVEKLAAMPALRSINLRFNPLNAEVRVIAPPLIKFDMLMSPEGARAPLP
Particulars: 50 uM, in vitro; for R value (DMSO/fragment) for probe 1 labeling: Q8TCA0_K43; for isoTOP-ABPP ratio (R) at liganded lysine Q8TCA0_K43: sol, 231. Summed up: (§1)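 Readout: isotopic light/heavy MS1 peak-area ratio (R, DMSO heavy over compound light), median across peptides sharing a modified lysine. Lysate received fragment (activated esters 50 μM, guanidinylating agents 100 μM final) or DMSO, then 0.1 mM STP-alkyne probe for 1 h at ambient temperature.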

The target in another experiment is T2, SPAST Spastin (Homo sapiens, UniProt Q9UBP0).
T2 construct: endogenous in cells; host or cells: MDA-MB-231 lysate
T2 sequence (Q9UBP0 1-616): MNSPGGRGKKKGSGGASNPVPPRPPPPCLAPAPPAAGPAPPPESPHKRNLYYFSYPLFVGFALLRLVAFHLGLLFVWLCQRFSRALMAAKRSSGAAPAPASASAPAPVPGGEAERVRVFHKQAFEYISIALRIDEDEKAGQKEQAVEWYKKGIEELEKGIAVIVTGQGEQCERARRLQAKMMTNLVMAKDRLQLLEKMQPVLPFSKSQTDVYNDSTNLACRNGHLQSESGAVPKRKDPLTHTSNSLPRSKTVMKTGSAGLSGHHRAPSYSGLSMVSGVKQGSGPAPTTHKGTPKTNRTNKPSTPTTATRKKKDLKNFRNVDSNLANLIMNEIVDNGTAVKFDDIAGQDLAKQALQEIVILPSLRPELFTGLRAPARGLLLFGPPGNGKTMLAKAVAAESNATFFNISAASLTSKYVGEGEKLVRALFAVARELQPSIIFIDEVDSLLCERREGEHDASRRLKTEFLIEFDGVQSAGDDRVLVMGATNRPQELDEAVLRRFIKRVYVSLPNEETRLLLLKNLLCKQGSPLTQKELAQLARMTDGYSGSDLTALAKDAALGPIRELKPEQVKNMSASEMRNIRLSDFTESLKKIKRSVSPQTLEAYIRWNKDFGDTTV
The following applies: 50 uM, in vitro; for R value (DMSO/fragment) for probe 1 labeling: Q9UBP0_K180; for isoTOP-ABPP ratio (R) at liganded lysine Q9UBP0_K180: sol, 231. In a few lines: as §1

The target in experiment [2] is T3, SOD2 Superoxide dismutase (Homo sapiens, UniProt P04179).
T3 construct: isoTOP-ABPP experiments performed in cell lysates (in vitro); endogenous in cells; host or cells: MDA-MB-231 soluble lysate
T3 sequence (P04179 25-222): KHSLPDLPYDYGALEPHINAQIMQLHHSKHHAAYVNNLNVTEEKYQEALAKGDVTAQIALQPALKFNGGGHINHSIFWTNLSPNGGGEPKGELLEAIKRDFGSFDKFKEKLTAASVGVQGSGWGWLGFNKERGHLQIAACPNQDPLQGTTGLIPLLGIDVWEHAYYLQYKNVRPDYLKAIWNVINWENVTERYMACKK
Particulars: 50 uM, in vitro; for R value (DMSO/fragment) for probe 1 labeling: P04179_K68, 231 sol; for isoTOP-ABPP ratio (R) at liganded lysine P04179_K68: sol, 231. In a few lines: as §1

The target of the next experiment is T4, DTYMK Thymidylate kinase (Homo sapiens, UniProt P23919).
T4 construct: isoTOP-ABPP experiments performed in cell lysates (in vitro); endogenous in cells; host or cells: soluble proteome of human cancer cell lines (MDA-MB-231; Ramos and Jurkat also prepared)
T4 sequence (P23919 1-212): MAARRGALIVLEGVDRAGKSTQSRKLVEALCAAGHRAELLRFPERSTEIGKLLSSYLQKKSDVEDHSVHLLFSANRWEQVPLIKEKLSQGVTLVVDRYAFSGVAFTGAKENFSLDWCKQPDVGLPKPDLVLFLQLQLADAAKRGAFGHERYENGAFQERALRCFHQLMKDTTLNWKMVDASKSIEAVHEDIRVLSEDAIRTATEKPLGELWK
The following applies: 50 uM, in vitro; for R value (DMSO/fragment) for probe 1 labeling: P23919_K118; for isoTOP-ABPP ratio (R) at liganded lysine P23919_K118: sol, 231. In a few lines:
as §1

Turning to `O=C(Oc1c(F)c(F)c(F)c(F)c1F)C(c1ccccc1)c1ccccc1` [fragment 20, Pentafluorophenyl 2,2-diphenylacetate], the “R value (DMSO/fragment) for probe 1 labeling” value in experiment [1] (231 sol) is listed as 0.7; on SPAST Spastin (231 sol), 1.2; in experiment [2], 1.0; on DTYMK Thymidylate kinase (231 sol) it was 0.9.

Consider `O=C(Oc1c(F)c(F)c(F)c(F)c1F)c1cc(C(F)(F)F)cc(C(F)(F)F)c1` [fragment 21, Pentafluorophenyl 3,5-bis(trifluoromethyl)benzoate], for which the “R value (DMSO/fragment) for probe 1 labeling” value was 1.0 in experiment [1] (231 sol), 1.8 at SPAST Spastin (231 sol), 1.2 in experiment [2] and 0.8 on DTYMK Thymidylate kinase (231 sol).

On to `O=C(CCc1cn(-c2ccccc2)nc1-c1ccccc1)Oc1ccc([N+](=O)[O-])cc1[N+](=O)[O-]` [fragment 29, 2,4-Dinitrophenyl 3-(1,3-diphenyl-1H-pyrazol-4-yl)propanoate], for which, in experiment [1] (231 sol), the “isoTOP-ABPP reactivity ratio at lysine Q8TCA0_K43” value is 1.3. The “isoTOP-ABPP reactivity ratio at lysine Q9UBP0_K180” value at SPAST Spastin (231 sol) came to 1.2. On DTYMK Thymidylate kinase (231 sol), the “isoTOP-ABPP reactivity ratio at lysine P23919_K118” value is recorded as 1.1.

With `O=C(Oc1ccc([N+](=O)[O-])cc1[N+](=O)[O-])c1ccc2ccccc2n1` [fragment 35, 2,4-Dinitrophenyl quinoline-2-carboxylate], the “isoTOP-ABPP ratio (R) at liganded lysine Q8TCA0_K43” value in experiment [1] worked out at 1.0. Also, the “isoTOP-ABPP ratio (R) at liganded lysine P23919_K118” value at DTYMK Thymidylate kinase is on record as 0.9.

Turning to `O=C(Oc1ccc([N+](=O)[O-])cc1[N+](=O)[O-])c1ccc(Oc2ccccc2)cc1` [fragment 39, 2,4-Dinitrophenyl 4-phenoxybenzoate], the “isoTOP-ABPP ratio (R) at liganded lysine Q8TCA0_K43” value in experiment [1] is 0.9. For the same compound, the “isoTOP-ABPP ratio (R) at liganded lysine Q9UBP0_K180” value on SPAST Spastin came out at 1.4. In addition, the “isoTOP-ABPP ratio (R) at liganded lysine P04179_K68” value in experiment [2] was 1.0. Also, the “isoTOP-ABPP ratio (R) at liganded lysine P23919_K118” value at DTYMK Thymidylate kinase amounted to 0.8.

In the case of `CC(C)(C)OC(=O)NCCCC(=O)Oc1ccc([N+](=O)[O-])cc1[N+](=O)[O-]` [fragment 41, 2,4-Dinitrophenyl 4-((tert-butoxycarbonyl)amino)butanoate], the “isoTOP-ABPP ratio (R) at liganded lysine Q9UBP0_K180” value on SPAST Spastin is listed as 1.4. The “isoTOP-ABPP ratio (R) at liganded lysine P04179_K68” value in experiment [2] is 4.8. In addition, the “isoTOP-ABPP ratio (R) at liganded lysine P23919_K118” value at DTYMK Thymidylate kinase worked out at 0.8.
